Measurements taken from patent publication US6410515B1, “Peptide, a method for its preparation and a pharmaceutical composition containing the peptide” (Immunotech Developments Inc., priority 1995, dated 2002).

How the values were obtained:
[1] = test system: CFU-S population of bone marrow; assay: Spleen colony and CFU-S count after peptide injection to marrow donor mice; assay type: in vivo; settings: for Colony count: control 10,7 ± 0,5; for CFU-S count: control 2436
Protocol: The effect of peptides of the present invention on a population of hemopoietic progenitors was studied by testing for colony formation by hemopoietic stem cells in spleens of irradiated mice.
The peptide was injected intraperitoneally (IP) at different concentrations to intact mice. After two hours, one day, or two days the animals were killed. The bone marrow from the animals was taken to prepare a suspension of marrow cells, which was injected to lethally irradiated (8.5 Gy) mice. Along with the bone marrow, the recipients received injections of thymocytes. After 9 days, spleen colonies were counted. […]
The treatment was performed as described in Example 4(c).

[2] = test system: mixed lymphocyte culture (MLC); assay: Mixed lymphocyte culture (MLC) proliferation; assay type: cell-based, mice
Protocol: The influence of the peptides of the invention on the proliferation of a mixed lymphocyte culture (MLC) was studied. The MLC experimental system is an in vitro analogue of the GVHD reaction.
Donor spleen cells from C57B1 mice ([…]) were injected into recipient (CBA×C57B1) F1 mice. Bone marrow was removed from the recipient and cultured for 4 days. The cultured cells were separated into 3 test groups, one group was treated with iDD, one with the L-peptide H-Ile-Glu-Trp-OH and one was a control. Each test peptide was added in various concentrations. Each determination was done in triplicate. ^3H-thymidine was added to each culture for 16 hours and the index of the proliferation of the cells was calculated.

[3] = test system: hyperthermic bone marrow cells (CFU-S); assay: Survival of CFU-S of bone marrow after heating at 42° C.; assay type: cell-based
Protocol: Hyperthermia is used in the treatment of various cancer types. When treating leukosis, the damaged bone marrow cells are heated at approximately 41-42° C. in order to kill malignant cells as they are more sensitive to heat. However, some non-malignant stem cells may also be affected. Consequently, the ability of the iDD peptide to protect cells during hyperthermia was tested. A suspension of the bone marrow, previously incubated for 1 hour at 37° C. in the presence of iDD (0.2 μg/4×10^6 cells), was heated for 30 minutes at 42° C. It was then diluted until the necessary concentration was reached and transplanted to the lethally radiated recipients The quantity of the exogenous colonies in the spleen was determined on the ninth day. […] The decrease of the colony formation under the action of iDD is not critical, because its colony-inhibiting action is reversible.

[4] = Solubility of the peptide; assay type: physicochemical
Excerpt: The resulting peptide has the following physical and chemical properties and characteristics: […]

(CBA×C57B1)F1 mice = assay: Chronic graft versus host reaction (GVHR); assay type: in vivo; settings: for Mouse weight: iDD 10 μg/kg/injection
Protocol: The effect of the peptide on a chronic “graft versus host reaction ” (GVHR) was studied, using the mode l described by Bundic et al. (Exp. Immunol. 1995, 99, p.467). Chronic GVHR was induced in hybrid non-irradiated animals by injecting them twice with large amounts (100 mln) of spleen cells of one of the parents.
Recipients were (CBA×C57B1)F1 mice, and donors of spleen cells were mice of the strain C57B1. The preparation iDD was administered in the same dose (10 μg/kg/injection) as in the tests on transplantation of allogenic bone marrow. Th e five-day treatment course began 24 hours after the first injection of spleen cells and lasted three weeks. Control group mice received Medium 199 in the same amount and at the same time as test mice received the peptide. Each group consisted of 15 animals.
Indicators of the degree of GVHR development were animal weight and splenomegaly (as measured by the increase in recipient's spleen weight on day 21). The effectiveness of the preparation was assessed by splenomegaly suppression expressed in % to control (splenomegaly in the control group was taken for […]). The interval between the first and the second injections of spleen cells was 7 days.
On day 21, a sharp increase in weight was recorded in 70% of control mice and 55% of test mice.

[5] = test system: patients with cytopenias of immune origin; assay: Clinical study: blood indices and lymphocyte subpopulations; assay type: in vivo; settings: for CD4+/CD8+ ratio After iDD treatment: normal 0.7-3.3; for % of cells After iDD treatment: CD4−CD8+ T-Suppressers: normal 18.9-47.9; for % of cells After iDD treatment: CD4+CD8− T-helpers: normal 31.4-63.8
Protocol: The peptide iDD was given to patients with cytopenias of immune origin and its effect on hemopoietic status was assessed using a number of immunological tests characterising both humoral and cellular immunity.
The iDD was administered 0.1 mg in a 1 ml dose intranasally (once or twice in divided doses) for 5 days. The regime was repeated after a two week interval. For patients receiving steroids and cytostatics, iDD was administered during the therapy or before the cytostatic treatment.
Below are cited the examples of indices dynamics in some patients.

[6] = test system: caryocytes in femoral marrow; assay: Reconstitution of caryocyte numbers in femoral marrow after 4 Gy; assay type: in vivo, mice; settings: 10 μg/kg IP 2 days before 4 Gy
Protocol: The reconstitution of caryocyte numbers and that of hemopoietic progenitors was studied in femoral marrow after irradiation in the dose of 4 Gy and the peptide injection. The test was performed in 12 groups of mice, 6 animals each, and lasted 14 days. Intraperitoneal injections of the peptide in a dose of 10 μg/kg were made 1 day and 2 days before the irradiation.

[7] = Peptide IP to donor mice 2 hours before
[8] = Peptide IP to donor mice 1 day before
[9] = Peptide IP to donor mice 2 days before

Substance: H-D-iGlu-D-Trp-OH [iDD]
- Colony count [1, 7]: 6,6 ± 0,5
- CFU-S count [1, 7]: 917
- Colony count [1, 8]: 4,7 ± 0,6
- CFU-S count [1, 8]: 653
- Colony count ([1]; Peptide IP to donor mice 2 days before + thymocytes): 9,4 ± 0,9
- Colony count [1, 9]: 6,0 ± 0,9
- CFU-S count [1, 9]: 1098
- Effect on MLC when H-Ile-Glu-Trp-OH and iDD added in equal concentrations ([2]; both peptides in equal concentrations): the effect of iDD was predominant
- Depression of the proliferation MLC ([2]; concentrations of 10 and 20 μg/ml, FIG. 1): ~50%
- Medium quantity of colonies ([3]; iDD 0.2 μg/4×10^6 cells + heating 30 minutes at 42° C., control + heating 5.9 ± 0.6): 6.9 ± 0.6
- Medium quantity of colonies ([3]; iDD 0.2 μg/4×10^6 cells, no heating, control 11.4 ± 0.4): 6.0 ± 0.6
- Survival of CFU-S, % ([3]; iDD + heating, control + heating 51.7): 115%
- Survival of CFU-S, % ([3]; iDD, no heating (reference)): 100%
- Solubility in alcohol ([4]; alcohol): moderately soluble
- Solubility in chloroform ([4]; chloroform): insoluble
- Solubility in water ([4]; water): readily soluble
- Survival rate ((CBA×C57B1)F1 mice; 21 days, control 80%): 100%
- Weight loss throughout the experiment ((CBA×C57B1)F1 mice; 21 days, control group weight loss 3 g): practically no weight loss
- Splenomegaly suppression, % ((CBA×C57B1)F1 mice; day 21, relative to control): 26%
- Splenomegaly ((CBA×C57B1)F1 mice; day 21, control 12,6 ± 1,2, intact 3,4 ± 0,3): 10,2 ± 1,0 mg spleen per mg body weight
- Mice with sharp increase in weight on day 21 ((CBA×C57B1)F1 mice; day 21, control 70%): 55%
- Mouse weight ((CBA×C57B1)F1 mice; day 0 after the first injection of spleen cells, control 22,3 ± 0,9): 22,6 ± 0,7 g
- Mouse weight ((CBA×C57B1)F1 mice; day 7, control 21,7 ± 0,8): 25,0 ± 0,6 g
- Mouse weight ((CBA×C57B1)F1 mice; day 14, control 18,3 ± 0,9): 23,3 ± 1,0 g
- Mouse weight ((CBA×C57B1)F1 mice; day 21, control 19,3 ± 1,1): 22,7 ± 0,9 g
- Absolute count after iDD: CD3−CD16,56+ nat. killers ([5]; Patient A, before 0.164): 0.108 bln/l
- Absolute count after iDD: CD3+HLA−DR+ activated T-lymphocytes ([5]; Patient A, before 0.388): 0.251 bln/l
- Absolute count after iDD: CD4−CD8+ T-Suppressers ([5]; Patient A, before 0.657): 0.305 bln/l
- Absolute count after iDD: CD4+CD8− T-helpers ([5]; Patient A, before 0.769): 0.522 bln/l
- Absolute count after iDD: CD45++CD14− lymphocytes ([5]; Patient A, before 1.6): 0.9 bln/l
- Haemoglobin content ([5]; Patient A, iDD, no steroids): 106 g/L
- CD4+/CD8+ ratio After iDD treatment ([5]; Patient A, test sample 1.2): 1.7
- % of cells After iDD treatment: CD45+CD14+ monocytes ([5]; Patient A, test sample 6.1): 3.3%
- % of cells After iDD treatment: CD3−CD16,56+ nat. killers ([5]; Patient A, test sample 10.3): 12.0%
- % of cells After iDD treatment: CD3+HLA−DR+ activated T-lymphocytes ([5]; Patient A, test sample 24.3, normal 2.8-17.3): 27.9%
- % of cells After iDD treatment: CD45++CD14− lymphocytes ([5]; Patient A, test sample 33.2): 34.8%
- % of cells After iDD treatment: CD4−CD8+ T-Suppressers ([5]; Patient A, test sample 41.1): 33.9%
- % of cells After iDD treatment: CD45+CD14− granulocytes ([5]; Patient A, test sample 41.4): 48.5%
- % of cells After iDD treatment: CD4+CD8− T-helpers ([5]; Patient A, test sample 48.1): 58.0%
- Absolute count after iDD: CD3−CD16,56+ nat. killers ([5]; Patient K, before 0.057): 0.054 bln/l
- Absolute count after iDD: CD4+CD8− T-helpers ([5]; Patient K, before 0.614): 0.393 bln/l
- Absolute count after iDD: CD4−CD8+ T-Suppressers ([5]; Patient K, before 0.712): 0.510 bln/l
- Absolute count after iDD: CD45++CD14− lymphocytes ([5]; Patient K, before 1.68): 1.09 bln/l
- CD4+/CD8+ ratio After iDD treatment ([5]; Patient K, test sample 0.8): 0.8
- % of cells After iDD treatment: CD3−CD16,56+ nat. killers ([5]; Patient K, test sample 3.4, normal 4.8-26.7): 5.0%
- % of cells After iDD treatment: CD45+CD14+ monocytes ([5]; Patient K, test sample 5.3): 5.2%
- % of cells After iDD treatment: CD45++CD14− lymphocytes ([5]; Patient K, test sample 26.0): 20.2%
- % of cells After iDD treatment: CD4+CD8− T-helpers ([5]; Patient K, test sample 36.3): 36.1%
- % of cells After iDD treatment: CD4−CD8+ T-Suppressers ([5]; Patient K, test sample 44.5): 46.8%
- % of cells After iDD treatment: CD45+CD14− granulocytes ([5]; Patient K, test sample 55.8): 74.7%
- Caryocyte count ([6]; 4 days after irradiation, 4 Gy alone 9,0 ± 0,3): 12,8 ± 0,9 × 10^6
- Caryocyte count ([6]; 7 days after irradiation, 4 Gy alone 10,6 ± 0,8): 21,3 ± 2,1 × 10^6
- Caryocyte count ([6]; 11 days after irradiation, 4 Gy alone 17,0 ± 0,6): 17,3 ± 1,0 × 10^6
- Caryocyte count ([6]; 14 days after irradiation, 4 Gy alone 17,0 ± 1,2): 20,5 ± 0,5 × 10^6
